Data as given in ChEMBL document CHEMBL6109178, “Species-Dependent Metabolism of a Covalent nsP2 Protease Inhibitor with In Vivo Antialphaviral Activity” (J Med Chem, 2025).
Active and inactive are the calls of the source. The rule behind the calls is not given here.

Key:
Type in all cases: functional, organism-based
Chikungunya virus [1] = test: Antiviral activity against CHIKV infected in male C57BL/6 mouse assessed as reduction in viral level in right foot at 100 mg/kg, administered three times a day and measured after 48 hrs
Chikungunya virus [2] = test: Antiviral activity against CHIKV infected in male C57BL/6 mouse assessed as reduction in viral level in left quad at 100 mg/kg, administered three times a day and measured after 48 hrs
Chikungunya virus [3] = test: Antiviral activity against CHIKV infected in male C57BL/6 mouse assessed as reduction in viral level in serum at 100 mg/kg, administered three times a day and measured after 48 hrs
Chikungunya virus [4] = test: Antiviral activity against CHIKV infected in male C57BL/6 mouse assessed as reduction in viral level in right quad at 100 mg/kg, administered three times a day and measured after 48 hrs
Chikungunya virus [5] = test: Antiviral activity against CHIKV infected in male C57BL/6 mouse assessed as reduction in viral level in spleen at 100 mg/kg, administered three times a day and measured after 48 hrs
Chikungunya virus [6] = test: Antiviral activity against CHIKV infected in male C57BL/6 mouse assessed as reduction in viral level in left foot at 100 mg/kg, administered three times a day and measured after 48 hrs

CCOc1ccccc1-c1cc(C(=O)NC/C=C/S(C)(=O)=O)n[nH]1
Activity (Chikungunya virus [1]): Active; Viral Level Reduced In 4 Out Of 5 Mouse | Activity (Chikungunya virus [2]): Active | Activity (Chikungunya virus [3]): Active; Reduction Of Small Level Of Virus Level Observed | Activity (Chikungunya virus [4]): Active | Activity (Chikungunya virus [5]): Active | Activity (Chikungunya virus [6]): inactive
